Assay results taken from patent US20060088820A1 (priority 1999, published 2006).

Experiments:
[1] = tested on: blood mononucleated cells from healthy donor
[2] = tested on: blood mononucleated cells from healthy donor inoculated with MS virion fraction; assay type: cell-based, human

| Structure (SMILES) | cell mortality (toxicity tests, compound alone) [1] | Vβ16 expansion of the lymphocytes (FACS analysis of T subpopulations) [2] |
| --- | --- | --- |
| Cc1cn([C@H]2C[C@H](N=[N+]=[N-])[C@@H](CO)O2)c(=O)[nH]c1=O [AZT, azidodeoxythymidine] | no significant cell mortality | an absence or an inhibition of Vβ16 expansion |
| O=c1[nH]cnc2c1ncn2[C@H]1CC[C@@H](CO)O1 [DDI, dideoxyinosine] |  | an absence of Vβ16 expansion |
